From US20040219214A1, “Tissue reactive compounds and compositions and uses thereof” (Angiotech International AG, priority 2002, published 2004) come the findings set out here.

The subject of assay [1] is TNFα production by THP-1 cells. Put plainly: TNF-alpha production by macrophages (ELISA). The class given is cell-based, human. The conditions noted are these: opsonized zymosan stimulation, 24 hours; average of n=4 experiments. The procedure: The human macrophage cell line, THP-1 is plated in a 12 well plate such that each well contains 1×10^6 cells in 2 mL of media containing 10% FCS. Opsonized zymosan is prepared by resuspending 20 mg of zymosan A in 2 mL of ddH2O and homogenizing until a uniform suspension is obtained. Homogenized zymosan is pelleted at 250 g and resuspended in 4 mL of human serum for a final concentration of 5 mg/mL. and incubated in a 37° C. water bath for 20 minutes to enable opsonization. Bay 11-7082 is prepared in DMSO at a concentration of 10^−2 M and serially diluted 10-fold to give a range of stock concentrations (10^−8 M to 10^−2 M) (J. Immunol. (2000) 165: 411-418; J. Immunol. (2000) 164: 4804-4811; J. Immunol Meth. (2000) 235 (1-2): 33-40).
THP-1 cells are stimulated to produce TNFα by the addition of 1 mg/mL opsonized zymosan. […]
After a 24 hour stimulation, supernatants are collected to quantify TNFα production. TNFα concentrations in the supernatants are determined by ELISA using recombinant human TNFα to obtain a standard curve. […] The dilution of Capture Antibody used is lot-specific and is determined empirically. […] Stop Solution (2 N H2SO4) is then added to the wells and a yellow colour reaction is read at 450 nm with A correction at 570 nm. Mean absorbance is determined from triplicate data readings and the mean background is subtracted. […]

In the next assay the test system is human fibroblasts. Put plainly: Screening assay for effect on cell proliferation (CYQUANT). Format: cell-based. The conditions noted are these: Fibroblast, 72 hours incubation, average of n=4 experiments. The procedure:
Fibroblasts at 70-90% confluency are trypsinized, replated at 600 cells/well in media in 96-well plates and allowed to attachment overnight. Mitoxantrone is prepared in DMSO at a concentration of […] and diluted 10-fold to give a range of stock concentrations (10^−8 M to 10^−2 M). Drug dilutions are diluted 1/1000 in media and added to cells to give a total volume of 200 μL/well. Each drug concentration is tested in triplicate wells. Plates containing fibroblasts and mitoxantrone are incubated at 37° C. for 72 hours (In vitro toxicol. (1990) 3: 219; Biotech. Histochem. (1993) 68: 29; Anal. Biochem. (1993)213: 426).
To terminate the assay, the media is removed by gentle aspiration. A 1/400 dilution of CYQUANT 400× GR dye indicator (Molecular Probes; Eugene, Oreg.) is added to 1× Cell Lysis buffer, and 200 μL of the mixture is added to the wells of the plate. Plates are incubated at room temperature, protected from light for 3-5 minutes. Fluorescence is read in a fluorescence microplate reader at ˜480 nm excitation wavelength and ˜520 nm emission maxima. Inhibitory concentration of 50% (IC50) is determined by taking the average of triplicate wells and comparing average relative fluorescence units to the DMSO control. An average of n=4 replicate experiments is used to determine IC50 values. (IC50=20 nM for proliferation of human fibroblasts).

Assay [2] relates to nitric oxide production in RAW 264.7 cells. Put plainly: Nitric oxide production by macrophages (Greiss assay). The class given is cell-based, murine. The note with it: Mus musculus, RAW264.7; IFNγ and LPS stimulation, 24 hours; average of n=4 experiments. The procedure:
The murine macrophage cell line RAW 264.7 is trypsinized to remove cells from flasks and plated in individual wells of a 6-well plate. Approximately 2×10^6 cells are plated in 2 mL of media containing 5% heat-inactivated fetal bovine serum (FBS). RAW 264.7 cells are incubated at 37° C. for 1.5 hours to allow adherence to plastic. Mitoxantrone is prepared in DMSO at a concentration of 10^−2 M and serially diluted 10-fold to give a range of stock concentrations (10^−8 M to 10^−2 M). Media is then removed and cells are incubated in 1 ng/mL of recombinant murine IFNγ and 5 ng/mL of LPS with or without mitoxantrone in fresh media containing 5% FBS. Mitoxantrone is added to cells by directly adding mitoxantrone DMSO stock solutions, prepared earlier, at a 1/1000 dilution, to each well. Plates containing IFNγ, LPS plus or minus mitoxantrone are incubated at 37° C. for 24 hours (Chem. Ber. (1879) 12: 426; J. AOAC (1977) 60-594; Ann. Rev. Biochem. (1994) 63: 175).
At the end of the 24 hour period, supernatants are collected from the cells and assayed for the production of nitrites. […] Optical density is read immediately on microplate spectrophotometer at 562 nm absorbance. Absorbance over triplicate wells is averaged after subtracting background and concentration values are obtained from the nitrite standard curve (1 μM to 2 mM). […]

`Cc1ccc(S(=O)(=O)/C=C/C#N)cc1` [Bay 11-7082]: in assay [1], the half-maximal inhibitory concentration (IC50) stood at 810 nM.

`O=C1c2c(O)ccc(O)c2C(=O)c2c(NCCNCCO)ccc(NCCNCCO)c21` [Mitoxantrone, 9,10-Anthracenedione, 1,4-dihydroxy-5,8-bis((2-((2-hydroxyethyl)amino]ethyl]amino]-]: the values for the IC50 (in the assay with human fibroblasts; in assay [2]) were 20 nM and 927 nM, respectively.

As usually defined, the IC50 is the midpoint of a concentration-inhibition curve.
